This is an account of results in patent US7312323B2, “Enzymes and polynucleotides encoding the same” (The Horticulture and Food Research Institute of New Zealand …, priority 2002, dated 2007).

Data set [1] relates to multifunctional germacrene D synthase. Kind of data set: Headspace volatiles above E. coli BL21 cultures harbouring pET30a75565, PDMS/DVB SPME. As to conditions: bacterial cultures. The class given is cell-based, Actinidia deliciosa. How it is done: Expression and characterization of multifunctional germacrene D synthase from bacterial cultures: E. coli BL21-Plus™-RIL cells harbouring pET30a75565, or empty pET30a vector as a control, were grown overnight at 37° C. in Luria-Bertani media supplemented with 30 μg/mL kanamycin and 50 μg/mL chloramphenicol. […] of overnight culture was used to inoculate 50 mL of fresh 2× YT medium supplemented with 30 μg/mL kanamycin and 50 μg/mL chloramphenicol. […] The culture was immediately transferred to an incubator set at 16° C., 30° C. or 37° C. depending on the experiment The headspace in the vessels above the bacterial cultures was collected immediately after the addition of FDP (or GDP) and hexadecane (the internal standard) using solid phase micro extraction (SPME). […] The background was analysed for contamination using GC-FID (HP5890) prior to use. The headspace volatiles were collected for ˜20 hours at 30° C. with continuous agitation (110 rpm). Prior to analysis using a GC-FID/MS, the fibres were stored at ambient temperature in septum sealed glass vials. The PDMS/DVB fibres were desorbed in the injector at 260° C.

The subject of data set [2] is multifunctional germacrene D synthase (EST75565). Kind of data set: Sesquiterpene products of purified recombinant protein + FDP, headspace trapping GC-MS. The class given is biochemical, Actinidia deliciosa.
Method: Characterization of multifunctional germacrene D synthase from bacterial extracts and purified recombinant protein: E. coli BL21-Plus™-RIL cells harbouring pET-30a75565 were grown overnight at 37° C. in Lauria-Bertani media supplemented with 30 μg ml^−1 kanamycin and 34 μg ml chloramphenicol^−1. 5 mL aliquots of overnight culture were used to inoculate 4×300 mL of fresh 2× YT medium supplemented with 30 μg ml^−1 kanamycin and 34 μg ml^−1 chloramphenicol in 1 L baffled flasks. Cultures were grown at 37° C. with vigorous agitation to A600=0.8, then removed to 4° C. to equilibrate to 16° C. before induction with 0.3 mM IPTG. Following induction, cultures were immediately transferred to a 16° C. incubator and allowed to grow for a further 24 hours with continuous agitation and then harvested by centrifugation (2000×g for 10 min). […]
The headspace in the testubes was collected immediately after the addition of FDP (or GDP) and hexadecane (internal standard) using solid phase micro extraction (SPME). […] The background was analysed for contamination using GC-FID (HP5890) prior to use. […]
The volatiles were desorbed from the fibres in the GC injection port for 10 minutes at 220° C. for the Carbowax/DVB fibres. […] Semi-quantitative data was obtained by measuring sample peak area relative to hexadecane internal standard. […]
For data set [3] the following is noted: Bülow and König 2000; cited from earlier work.
Data set [4] is described as follows: Thermal rearrangement, pentane extracts from purified protein injected at different port temperatures. The class given is physicochemical. As to the method:
Dynamic headspace methods were also used to collect the headspace volatiles from the purified extracts on to 100 mg Chromosorb 105 adsorbent traps. The protein was placed into 50 mL Quickfit® test tubes, which were fitted with a headspace adaptor with an air inlet and outlet. Volatiles were collected onto the Chromosorb 105 adsorbent traps, which were fitted to the air outlet port of each adaptor. The volatiles were purged from the vessel onto the traps with clean air at 50 mL min^−1 for 18 hours. The traps were stored at −15° C. for up to one week, and then subjected to GC-FIDIMS analysis. Finally, pentane extracts were taken from the purified extracts. An aliquot (2.5 ml) of pentane was added to the purified extracts and was left to extract for 18 hours. The pentane was removed and then concentrated with a stream of N2 gas. This was then injected onto the GC-MS at 150° C.
More light can be shed on the possibility of rearrangement of the products using pentane extraction.
In an experiment to test for thermal rearrangement, injections of pentane extract from purified protein were made at temperatures of 125, 150 and 210° C.; or pentane extract from Actinidia flowers were made at temperatures of 100, 125, 150 and 210° C. […] Germacrene B modulated slightly in response to temperature shifts although no gamma-elemene was found as might be predicted. In addition the predicted precursor for delta elemene—germacrene C (Feger et al., Flavour and Fragrance Journal 15: 170-173 (2000)) was not detected at any time. Germacrene A was also not detected at any time. […] Elemol may arise from further rearrangements of delta-elemene or from other elemene sources or from hedycaryol (Chamblee et al., J. Essent. Oil Res. 9: 127-132 (1997)). No GC-MS traces in any experiments indicated evidence for germacrene-C or for hedycaryol.

In another data set the test system is Heliothis virescens. The following applies: Mozuraitis et al. 2002; cited from earlier work.
Data set [5] can be described thus: Thermal rearrangement, pentane extracts from Actinidia flowers injected at different port temperatures. Format: physicochemical. As to the method:
Whole flowers of the same plants were also harvested at anthesis in 2000. 18.6 g and 21 g of flowers from a mixture of developmental stages were placed in 2× Quickfit® Erlenmeyer flasks as above. Volatiles were collected onto a Chromosorb adsorbent trap in duplicate, after the system had been equilibrated for 30 min at room temperature (ca. 23° C.), by purging onto the trap with clean air at 25 mL min^−1 for 60 minutes. The trap was stored at −15° C. for one week and then analysed by GC-FD/MS. The same petals (1.99 g) were then extracted with pentane-ether (2 ml) and stored at −20° C. until analysed. The pentane (GPR, BDH) had been purified by distillation and by passing through a column of activated alumina. Pentane extracts were reduced by rotary evaporation and were dried by passing through a small column of anhydrous MgSO4 before the volume was reduced to ca. 50 μL under a gentle stream of nitrogen. The extract was analysed by GC-FID/MS.
GC-MS Analysis of dynamic headspace samples and pentane extracts: Volatile compounds were thermally desorbed from the headspace traps at 150° C. and were cryo-focussed at the beginning of the GC column (Young, 1981). The column outlet was split between the GC (Hewlett Packard 5890) FID detector (for quantitation) and VG-70SE (VG-Micromass, Manchester, U.K.) mass spectrometer (for component identification) with an electron impact ionisation of 70 eV. Separations were carried out in a 30 m×0.32 mm i.d., 0.5 μn DBWax capillary column (J & W Scientific, Folsom, USA), starting at 30° C. for 6 min, increasing by 3° C. min^−1 to 102° C., 5° C. min^−1 to 210° C. and held for 5 min. Injector temperature was 210° C. The carrier gas was He at a flow rate of ˜30 cm s^−1, and the FID and mass spectrometer transfer line were at 210° C. Quantification of compounds was carried out using an average detector response based on methyl butanoate, ethyl butanoate, hexanol and methyl benzoate. Components were identified by comparison with spectra in the mass spectral database (NIST 1998, Wiley 7 and an in-house database), retention indices (in-house database) and in some cases direct GC-MS comparison with authentic standards. Separations for the earlier 2000 samples were carried out in the same manner as above except the programme started at 30° C. for 6 min, increasing by 3° C. min^−1 to 102° C., 5° C. min^−1 to 190° C. and held for 5 min. Analysis of the pentane extract used a programme of 2 min at 40° C., 5° C. min^−1 to 200° C., 15° C. m^−1 to 240° C. and held for 20 min. For genotype 32-10-07a: the GC-MS was programmed to start at 30° C. for 2 min, increasing by 3° C. min^−1 to 50° C., 5° C. min^−1 to 130° C., 10° C. min^−1 to 240° C. and held for 2 min. Injector temperature was 240° C.
In an experiment to test for thermal rearrangement, injections of pentane extract from purified protein were made at temperatures of 125, 150 and 210° C.; or pentane extract from Actinidia flowers were made at temperatures of 100, 125, 150 and 210° C.

For another data set, the system named is Periplanata americana L. The following applies: Nishino et al. 1977; cited from earlier work.
The mark [6] stands for this setting: injection port temperature 125 °C.
Where [7] appears, read: injection port temperature 150 °C.
The mark [8] stands for this setting: injection port temperature 210 °C.

For the compound `CC(C)=CCC/C(C)=C/COP(=O)(O)OP(=O)(O)O` [GDP, geranyl diphosphate], the “products on addition of GDP instead of FDP” value is reported as “did not result in the production of any monoterpenes” in data set [1] and “did not produce any germacrene D” in data set [2].
As for `C=C1C=CC(C(C)C)CCC(C)=CCC1` (stereo not drawn) [Germacrene D, 7-iso-propyl-10-methyl-4-methylene-cyclodeca-5,10-diene], in data set [3], the “temperature up to which stable” value is “up to 180 °C”. Besides, the “Peak Area” value in data set [4] (setting [6]) is given as 4.22 × 10^6; in data set [4] (setting [7]) it was 4.90 × 10^6; in data set [4] (setting [8]), 3.91 × 10^6; in data set [5] (injection port temperature 100 °C), 2.85 × 10^7 ^; in data set [5] (setting [6]), 3.78 × 10^7; in data set [5] (setting [7]) it was 3.87 × 10^7. Also, the “Peak Area” value in data set [5] (setting [8]) is listed as 2.42 × 10^7. For the same compound, the “effect on moth behaviour” value with Heliothis virescens is “increase attraction of and oviposition”. The “effect on male cockroach” value with Periplanata americana L. was “sex stimulant”.
